In US11447486B2, “2-amino-benzimidazole derivatives and their use as 5-lipoxygenase and/or prostaglandin E synthase inhibitors” (INSTITUT PASTEUR KOREA, priority 2014, dated 2022):
Read-outs that look alike come from different tables or passages of the source.

How the values were obtained:
[1] = molecular target: T1, human 5-LOX (Homo sapiens, UniProt P09917); experiment: 5-LOX enzyme activity, fluorescence method (5-HPETE, H2DCFDA); format: biochemical; conditions: read-out: 5-LO (IC50)
T1 construct: purchased Cayman 60402; host or cells: insect cells (lysate)
T1 sequence (P09917 1-674): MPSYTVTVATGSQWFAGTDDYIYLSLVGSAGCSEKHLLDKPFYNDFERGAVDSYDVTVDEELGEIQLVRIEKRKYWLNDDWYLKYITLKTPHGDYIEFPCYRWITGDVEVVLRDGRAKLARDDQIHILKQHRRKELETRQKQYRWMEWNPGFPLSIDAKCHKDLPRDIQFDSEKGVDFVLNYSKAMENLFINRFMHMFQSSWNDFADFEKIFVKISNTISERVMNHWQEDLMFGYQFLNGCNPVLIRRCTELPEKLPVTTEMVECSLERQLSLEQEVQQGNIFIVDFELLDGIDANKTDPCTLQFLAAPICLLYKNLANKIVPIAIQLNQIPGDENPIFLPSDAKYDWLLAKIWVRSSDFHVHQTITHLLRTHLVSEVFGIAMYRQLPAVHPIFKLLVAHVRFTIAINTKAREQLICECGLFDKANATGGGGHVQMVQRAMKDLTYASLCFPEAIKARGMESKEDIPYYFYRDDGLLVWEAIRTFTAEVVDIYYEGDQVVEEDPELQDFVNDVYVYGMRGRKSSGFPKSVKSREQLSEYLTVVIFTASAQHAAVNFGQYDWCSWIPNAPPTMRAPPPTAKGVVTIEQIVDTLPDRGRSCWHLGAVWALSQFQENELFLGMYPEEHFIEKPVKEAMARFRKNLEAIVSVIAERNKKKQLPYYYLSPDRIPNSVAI
Description: The activity of compounds against 5-LOX were determined by measuring LTB4 (leukotriene B4) levels and/or by a fluorescence method. Both approaches are outlined in more detail below;
The compound, in a dose response manner(0.5 nM to 10 uM), and enzyme mixture was pre-incubated for 5 minutes, and the enzymatic reaction was initiated by addition of ATP and arachidonic acid to a final concentration of 100 uM and 3 uM, respectively. […] All steps were carried out at room temperature.

[2] = test system: Rat basophilic leukemia (RBL) cells; experiment: LTB4 secretion assay in RBL (rat basophilic leukemia cells); format: cell-based
Description: Rat basophilic leukemia (RBL) cells (ATCC, Cat #CRL-2256) were maintained in EMEM (ATCC, Cat #30-2003) supplemented with 15% FBS. The day before RBL assay, cells were seeded at a concentration of 2×10^4 cells per well in 96-well plates. The media was replaced with 100 ul of EMEM supplemented with 0.5% FBS and compounds in dose response(5 nM to 100 uM) were added. After 15 min of pre-incubation at 37° C., arachidonic acid and calcium ionophore (A23187) were added to give a final concentration of 2.5 uM and 5 uM, respectively. After a further 10 min incubation at 37° C., culture supernatant was transferred and quantification of LTB4 was done with a Leukotriene B4 EIA kit (Cayman, Cat #520111) as instructed.

| SMILES | IC50 [1] | EC50 ([2]; Rattus norvegicus, RBL) | EC50 [2] |
| --- | --- | --- | --- |
| Cc1cc(Nc2cc(Cl)c3nc(NCc4ccc(Oc5ncc(Cl)cn5)cc4)n(C)c3c2)n[nH]1 [Compound 556] | < 1 µM | < 10 µM | – |
| Cn1c(NCc2ccc(C(=O)Nc3ccc(Cl)cn3)cc2)nc2ccc(N)cc21 [Compound 310] | < 1 µM | > 20 µM | – |
| Cn1c(NCc2ccc(Oc3ncc(Cl)cn3)cc2)nc2ccc(Nc3n[nH]cc3C(=O)NC3CC3)cc21 [Compound 483] | < 1 µM | > 20 µM | – |
| Nc1ccc2nc(NCc3ccc(C(=O)C4CCCC4)cc3)[nH]c2c1 [Compound 168] | < 1 µM | < 10 µM | – |
| Cn1c(NCc2ccc(Oc3ncc4ccc(Cl)cc4n3)cc2)nc2ccc(NC3COC3)cc21 [Compound 444] | < 1 µM | 10 to 20 µM | – |
| CN(c1ccc(CNc2nc3ccc(N)cc3n2C)cc1)c1ncc(Cl)cn1 [Compound 463] | < 1 µM | < 10 µM | – |
| Cn1c(NCc2ccc(Oc3ncc(Cl)cn3)cc2)nc2ccc(NC3CNC3)cc21 [Compound 407] | < 1 µM | < 10 µM | – |
| Cn1c(NCc2ccc(Oc3ncc(Cl)cn3)c(Cl)c2)nc2ccc(N)cc21 [Compound 391] | < 1 µM | < 10 µM | – |
| Nc1ccc2nc(NCC(Oc3ccc(Cl)cc3)c3ccccc3)[nH]c2c1 (stereo not shown) [Compound 169] | < 1 µM | < 10 µM | – |
| Cn1c(NCc2ccc(Oc3ccc4c(Cl)cccc4n3)cc2)nc2ccc(N)cc21 [Compound 424] | < 1 µM | < 10 µM | – |
| CC(C)c1cc(CNc2nc3ccc(N)cc3n2C)ccc1Oc1ncc(Cl)cn1 [Compound 395] | < 1 µM | < 10 µM | – |
| Cc1ccc(Oc2ccc(CNc3nc4ccc(NC5COC5)cc4n3C)cc2)nn1 [Compound 312] | < 1 µM | > 20 µM | – |
| Cn1c(NCc2ccc(Oc3ccc(Cl)cc3)cc2)nc2ccc(NCC#N)cc21 [Compound 171] | < 1 µM | > 20 µM | – |
| Fc1ccc(OC2CCN(c3nc4cc(NC5COC5)ccc4[nH]3)CC2)cc1 [Compound 36] | < 1 µM | 10 to 20 µM | – |
| Nc1ccc2nc(N)n(Cc3ccc(Oc4ccc(Cl)cn4)c(F)c3)c2c1 [Compound 248] | < 1 µM | < 10 µM | – |
| Nc1ccc2nc(NCCO)n(Cc3ccc(Oc4ccc(Cl)cn4)cc3)c2c1 [Compound 250] | < 1 µM | < 10 µM | – |
| Cn1c(NCc2ccc(Oc3ccnc4cc(Cl)ccc34)cc2)nc2ccc(NC3COC3)cc21 [Compound 384] | < 1 µM | < 10 µM | – |
| CC(C)(C)Nc1nc2cc(N)ccc2n1CC(=O)Nc1ccc(OC(F)(F)F)cc1 [Compound 69] | 1 to 10 µM | < 10 µM | – |
| Cn1c(N2CCC(c3ccc(OC(F)(F)F)cc3)CC2)nc2ccc(N)cc21 [Compound 157] | < 1 µM | > 20 µM | – |

| SMILES | IC50 [1] | EC50 ([2]; Rattus norvegicus, RBL) | EC50 [2] |
| --- | --- | --- | --- |
| Nc1ccc2nc(N)n(Cc3ccc(Oc4nc5ccccc5o4)cc3)c2c1 [Compound 246] | < 1 µM | < 10 µM | – |
| Cc1cc(Oc2ccc(Cl)cn2)ccc1CNc1nc2ccc(N)cc2n1C [Compound 290] | < 1 µM | < 10 µM | – |
| CN(C)c1nc2cc(NCc3coc(Nc4ccc(Cl)cc4)n3)ccc2[nH]1 [Compound 214] | < 1 µM | < 10 µM | – |
| Cn1c(NCc2ccc(Oc3ccc(Cl)cn3)cc2)nc2ccc(NCCO)cc21 [Compound 313] | < 1 µM | < 10 µM | – |
| CCC(Nc1nc2ccc(N)cc2n1C)c1ccc(Oc2ncc(Cl)cn2)cc1 (stereo not shown) [Compound 452] | < 1 µM | < 10 µM | – |
| CCOC(=O)c1coc(-c2ccc(CNc3ccc4[nH]c(N(C)C)nc4c3)cc2)n1 [Compound 218] | < 1 µM | < 10 µM | – |
| Cn1c(NCc2ccc(Oc3ccc(Cl)cn3)cc2)nc2ccc(N)cc21 [Compound 210] | < 1 µM | < 10 µM | – |
| CN(C)c1nc2ccc(NCc3ccc(-c4cccc(=O)[nH]4)cc3)cc2[nH]1 [Compound 221] | < 1 µM | > 20 µM | – |
| Cn1c(NCc2ccc(Oc3ccc4ccc(Cl)cc4n3)cc2)nc2ccc(NC3COC3)cc21 [Compound 420] | < 1 µM | < 10 µM | – |
| Nc1ccc2nc(NCc3ccc4cc(Cl)ccc4n3)[nH]c2c1 [Compound 156] | < 1 µM | 10 to 20 µM | – |
| CCn1c(NCc2ccc(Oc3ncc(Cl)cn3)cc2)nc2ccc(Nc3cc(C(F)(F)F)n(C)n3)cc21 [Compound 510] | > 10 µM | – | < 10 µM |
| Cn1c(NCc2ccc(Oc3ncc(Cl)cn3)cc2)nc2ccc(NC3CN(C(N)=O)C3)cc21 [Compound 408] | < 1 µM | > 20 µM | – |
| Nc1cnc2c(c1)nc(N1CCCC1)n2CCOc1ccc(OC(F)(F)F)cc1 [Compound 72] | > 10 µM | > 20 µM | – |
| Cn1c(NCc2ccc(OCc3ncco3)cc2)nc2ccc(N)cc21 [Compound 342] | < 1 µM | < 10 µM | – |
| Nc1ccc2[nH]c(N3CCC(Oc4ccc(OC(F)(F)F)cc4Cl)C3)nc2c1 (stereo not shown) [Compound 71] | < 1 µM | 10 to 20 µM | – |
| Cc1cc(Nc2ccc3nc(NCc4ccc(Oc5ncc(Cl)cn5)cc4)n(C)c3n2)n[nH]1 [Compound 500] | 1 to 10 µM | 10 to 20 µM | – |
| Cn1c(NCc2ccc(Oc3ncc(Cl)cc3F)cc2)nc2ccc(N)cc21 [Compound 323] | < 1 µM | < 10 µM | – |
| FC1(F)CN(c2ccc3nc(NCc4ccc(Oc5ccc(Cl)cc5)cc4)[nH]c3c2)C1 [Compound 242] | 1 to 10 µM | < 10 µM | – |
| Cn1c(NCc2cc(Cl)c(Oc3ncc(Cl)cn3)cc2Cl)nc2ccc(N)cc21 [Compound 432] | < 1 µM | < 10 µM | – |

| SMILES | IC50 [1] | EC50 ([2]; Rattus norvegicus, RBL) | EC50 [2] |
| --- | --- | --- | --- |
| Cn1c(NCc2ccc(Oc3ccc(Cl)cn3)cc2F)nc2ccc(N)cc21 [Compound 272] | < 1 µM | < 10 µM | – |
| CN(C)c1nc2cc(N3CCC(c4nc5ccc(Cl)cc5o4)C3)ccc2[nH]1 (stereo not shown) [Compound 236] | < 1 µM | < 10 µM | – |
| Cn1c(NCc2ccc(Oc3ccnc4c(Cl)cccc34)cc2)nc2ccc(NC3COC3)cc21 [Compound 388] | < 1 µM | 10 to 20 µM | – |
| Cn1c(NCc2ccc(Oc3ccc(OC(F)(F)F)cn3)cc2)nc2ccc(N)cc21 [Compound 377] | < 1 µM | < 10 µM | – |
| Cn1c(NCc2ccc(Oc3ccncn3)cc2)nc2ccc(N)cc21 [Compound 370] | < 1 µM | 10 to 20 µM | – |
| Cn1c(NCc2ccc(Oc3ccc(Cl)cc3)cc2)nc2ccc(N)cc21 [Compound 167] | < 1 µM | > 20 µM | – |
| Cn1c(NCc2ccc(Oc3ncc(Cl)cn3)cc2)nc2ccc(NCCN3CCOCC3)cc21 [Compound 379] | < 1 µM | < 10 µM | – |
| Cn1c(NCc2ccc(Oc3ccc(Cl)cn3)cc2)nc2ccc(NC3CN(C(N)=O)C3)cc21 [Compound 404] | < 1 µM | > 20 µM | – |
| Cn1c(NCc2ccc(Oc3cnc(Cl)nc3)cc2)nc2ccc(N)cc21 [Compound 340] | < 1 µM | < 10 µM | – |
| CN(C)c1nc2cc(NCc3ccc(-c4nc(C(=O)O)co4)cc3)ccc2[nH]1 [Compound 228] | < 1 µM | > 20 µM | – |
| Cc1cc(Oc2ccc(Cl)cn2)cc(C)c1CNc1nc2ccc(N)cc2n1C [Compound 334] | < 1 µM | 10 to 20 µM | – |
| N#CCCNc1nc2ccc(N)cc2n1Cc1ccc(Oc2ccc(Cl)cc2)cc1 [Compound 252] | < 1 µM | < 10 µM | – |
| Cn1c(NCc2ccc(Oc3ccc(OC(F)(F)F)cc3)cc2)nc2ccc(N)cc21 [Compound 292] | < 1 µM | < 10 µM | – |
| Cn1c(NCc2ccc(Oc3ncc4cccc(Cl)c4n3)cc2)nc2ccc(NC3COC3)cc21 [Compound 437] | < 1 µM | < 10 µM | – |
| CCn1c(NCc2ccc(Oc3ncc(C(F)(F)F)cn3)cc2)nc2ccc(NC3COC3)cc21 [Compound 548] | < 1 µM | < 10 µM | – |
| Cc1cc(Nc2ccc3nc(NCc4ccc(Oc5ncc(-c6ccc(Cl)cc6)cn5)cc4)n(C)c3c2)n[nH]1 [Compound 467] | < 1 µM | < 10 µM | – |
| CC(C)n1c(NCc2ccc(Oc3ccc(Cl)cn3)cc2)nc2ccc(N)cc21 [Compound 258] | < 1 µM | < 10 µM | – |
| Cn1c(NCc2ccc(Oc3ccc4cc(F)ccc4n3)cc2)nc2ccc(N)cc21 [Compound 382] | < 1 µM | < 10 µM | – |
